Measured values from patent US20020137929A1, “1 - (3-heterocyclylphenyl) isothiourea, -isourea, -guanidine and -amidine herbicidal agents” (Intellectual Property Department, BASF Aktiengesellschaft, priority 1998, published 2002).

Assays:
AMBEL (Ragweed, Common) = experiment: Postemergence herbicidal evaluation; type: in vivo, Ambrosia artemisifolia; conditions: postemergence
In short: (§1)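 Herbicidal effect was judged by eye on a 0–9 scale covering stand, vigor, deformity, size and chlorosis, compared with controls, four to five weeks after seedlings about two weeks old were sprayed (40 psi, ~0.0156–0.500 kg/ha).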

CASOB (Sicklepod) [1] = experiment: Postemergence herbicidal evaluation; type: in vivo, Cassia obtusifolia; conditions: postemergence
In short: as §1

GALAP (Galium) = experiment: Postemergence herbicidal evaluation; type: in vivo, Galium aparine; conditions: postemergence
In short: as §1

[2] = tested on: IPOHE (Morningglory, Ivyleaf); experiment: Postemergence herbicidal evaluation; type: in vivo, Ipomoea hederacea; conditions: postemergence
In short: as §1

ABUTH (Velvetleaf) = experiment: Preemergence herbicidal evaluation; type: in vivo, Abutilon theophrasti; conditions: rated 4-5 weeks after treatment
In short: (§2)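 Greenhouse preemergence test: seed-soil mix sown on ~1 inch soil; aqueous acetone spray at equivalent of ~0.0156–0.500 kg/ha; greenhouse-held and watered; scored 0–9 visually at 4–5 weeks.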

CASOB (Sicklepod) [3] = experiment: Preemergence herbicidal evaluation; type: in vivo, Cassia obtusifolia; conditions: rated 4-5 weeks after treatment
In short: as §2

[4] = tested on: IPOHE (Morningglory, Ivyleaf); experiment: Preemergence herbicidal evaluation; type: in vivo, Ipomoea hederacea; conditions: rated 4-5 weeks after treatment
In short: as §2

ECHCG (Barnyardgrass) = experiment: Preemergence herbicidal evaluation; type: in vivo, Echinochloa crus-galli; conditions: rated 4-5 weeks after treatment
In short: as §2

[5] = tested on: GLXMAW (Soybean, Williams); experiment: Preemergence herbicidal evaluation; type: in vivo, Glycine max, (L.) Merr. cv Williams; conditions: rated 4-5 weeks after treatment
In short: as §2

[6] = tested on: TRZAWR (Wheat, Winter, cv Riband); experiment: Preemergence herbicidal evaluation; type: in vivo, Triticum aestivum; conditions: rated 4-5 weeks after treatment
In short: as §2

ZEAMX (Corn, Field) = experiment: Preemergence herbicidal evaluation; type: in vivo, Zea mays; conditions: rated 4-5 weeks after treatment
In short: as §2

MOOVA (Monochoria) = experiment: Preemergence weed control under flooded paddy conditions; type: in vivo, Monochoria vaginalis; conditions: rated 3-4 weeks after treatment
In short: (§3)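 Using flooded silt loam (water 1.5 to 3 cm deep), seeds sown in the top 0.5 cm were exposed preemergence to compound pipetted into the flood at about 0.0313 to 0.500 kg/ha. Effects were scored 0-9 by eye three to four weeks later.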

[7] = tested on: SAGPY (Arrowhead (Pygmaea)); experiment: as above; type: in vivo, Sagittaria pygmaea; conditions: rated 3-4 weeks after treatment
In short: as §3

CYPIR (Rice Flatsedge) = experiment: Postemergence weed control under flooded paddy conditions; type: in vivo, Cyperus iria; conditions: postemergence weeds, 3-4 weeks after treatment
In short: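 Containers holding 3–5 cm weeds and rice at 1.5–2.5 leaves are flooded to 1.5–3 cm above soil. Compound in 50/50 v/v aqueous/acetone is then added directly to the water, about 0.0313–0.500 kg/ha. Plants are kept in the greenhouse and rated 0–9 visually at 3–4 weeks.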

SMILES: CCOC(=O)CN1C(=O)C(F)SC1=Nc1cc(-n2c(=O)cc(C(F)(F)F)n(C)c2=O)c(F)cc1Cl (stereo not drawn) [Compound 11, Ethyl 2-{{2-chloro-5-[3,6-dihydro-3-methyl-2,6-dioxo-4-(trifluoromethyl)-1(2H)-pyrimidinyl]-4-fluorophenyl}imino}-5-fluoro-4-oxo-3-thiazolidineacetate]
- AMBEL herbicidal rating (AMBEL (Ragweed, Common); rate 0.0156 kg/ha): 1.0
- AMBEL herbicidal rating (AMBEL (Ragweed, Common); rate 0.0313 kg/ha): 9.0
- AMBEL herbicidal rating (AMBEL (Ragweed, Common); rate 0.0625 kg/ha): 9.0
- AMBEL herbicidal rating (AMBEL (Ragweed, Common); rate 0.1250 kg/ha): 9.0
- CASOB herbicidal rating (CASOB (Sicklepod) [1]; rate 0.0156 kg/ha): 0.0
- CASOB herbicidal rating (CASOB (Sicklepod) [1]; rate 0.0313 kg/ha): 0.0
- CASOB herbicidal rating (CASOB (Sicklepod) [1]; rate 0.0625 kg/ha): 0.0
- CASOB herbicidal rating (CASOB (Sicklepod) [1]; rate 0.1250 kg/ha): 3.0
- GALAP herbicidal rating (GALAP (Galium); rate 0.0156 kg/ha): 3.0
- GALAP herbicidal rating (GALAP (Galium); rate 0.0313 kg/ha): 5.0
- GALAP herbicidal rating (GALAP (Galium); rate 0.0625 kg/ha): 6.0
- GALAP herbicidal rating (GALAP (Galium); rate 0.1250 kg/ha): 6.0
- IPOHE herbicidal rating ([2]; rate 0.0156 kg/ha): 9.0
- IPOHE herbicidal rating ([2]; rate 0.0313 kg/ha): 9.0
- IPOHE herbicidal rating ([2]; rate 0.0625 kg/ha): 9.0
- IPOHE herbicidal rating ([2]; rate 0.1250 kg/ha): 9.0
- ABUTH preemergence herbicidal rating (ABUTH (Velvetleaf); rate 0.0156 kg/ha): 7.5
- ABUTH preemergence herbicidal rating (ABUTH (Velvetleaf); rate 0.0313 kg/ha): 8.5
- ABUTH preemergence herbicidal rating (ABUTH (Velvetleaf); rate 0.0625 kg/ha): 8.5
- ABUTH preemergence herbicidal rating (ABUTH (Velvetleaf); rate 0.1250 kg/ha): 9.0
- ABUTH preemergence herbicidal rating (ABUTH (Velvetleaf); rate 0.2500 kg/ha): 9.0
- CASOB preemergence herbicidal rating (CASOB (Sicklepod) [3]; rate 0.0156 kg/ha): 0.0
- CASOB preemergence herbicidal rating (CASOB (Sicklepod) [3]; rate 0.0313 kg/ha): 0.0
- CASOB preemergence herbicidal rating (CASOB (Sicklepod) [3]; rate 0.0625 kg/ha): 0.0
- CASOB preemergence herbicidal rating (CASOB (Sicklepod) [3]; rate 0.1250 kg/ha): 0.0
- CASOB preemergence herbicidal rating (CASOB (Sicklepod) [3]; rate 0.2500 kg/ha): 5.5
- IPOHE preemergence herbicidal rating ([4]; rate 0.0156 kg/ha): 2.0
- IPOHE preemergence herbicidal rating ([4]; rate 0.0313 kg/ha): 8.0
- IPOHE preemergence herbicidal rating ([4]; rate 0.0625 kg/ha): 8.0
- IPOHE preemergence herbicidal rating ([4]; rate 0.1250 kg/ha): 9.0
- IPOHE preemergence herbicidal rating ([4]; rate 0.2500 kg/ha): 9.0
- ECHCG preemergence herbicidal rating (ECHCG (Barnyardgrass); rate 0.0156 kg/ha): 0.0
- ECHCG preemergence herbicidal rating (ECHCG (Barnyardgrass); rate 0.0313 kg/ha): 0.0
- ECHCG preemergence herbicidal rating (ECHCG (Barnyardgrass); rate 0.0625 kg/ha): 0.0
- ECHCG preemergence herbicidal rating (ECHCG (Barnyardgrass); rate 0.1250 kg/ha): 3.5
- ECHCG preemergence herbicidal rating (ECHCG (Barnyardgrass); rate 0.2500 kg/ha): 7.0
- GLXMAW preemergence herbicidal rating ([5]; rate 0.0156 kg/ha): 1.5
- GLXMAW preemergence herbicidal rating ([5]; rate 0.0313 kg/ha): 1.5
- GLXMAW preemergence herbicidal rating ([5]; rate 0.0625 kg/ha): 3.5
- GLXMAW preemergence herbicidal rating ([5]; rate 0.1250 kg/ha): 6.0
- GLXMAW preemergence herbicidal rating ([5]; rate 0.2500 kg/ha): 8.0
- TRZAWR preemergence herbicidal rating ([6]; rate 0.0156 kg/ha): 0.0
- TRZAWR preemergence herbicidal rating ([6]; rate 0.0313 kg/ha): 0.0
- TRZAWR preemergence herbicidal rating ([6]; rate 0.0625 kg/ha): 0.0
- TRZAWR preemergence herbicidal rating ([6]; rate 0.1250 kg/ha): 2.0
- TRZAWR preemergence herbicidal rating ([6]; rate 0.2500 kg/ha): 5.0
- ZEAMX preemergence herbicidal rating (ZEAMX (Corn, Field); rate 0.0156 kg/ha): 0.0
- ZEAMX preemergence herbicidal rating (ZEAMX (Corn, Field); rate 0.0313 kg/ha): 0.5
- ZEAMX preemergence herbicidal rating (ZEAMX (Corn, Field); rate 0.0625 kg/ha): 3.5
- ZEAMX preemergence herbicidal rating (ZEAMX (Corn, Field); rate 0.1250 kg/ha): 4.5
- ZEAMX preemergence herbicidal rating (ZEAMX (Corn, Field); rate 0.2500 kg/ha): 5.5
- Herbicidal rating MOOVA (MOOVA (Monochoria); 0.0313 kg/ha): 0.0
- Herbicidal rating MOOVA (MOOVA (Monochoria); 0.0625 kg/ha): 1.0
- Herbicidal rating MOOVA (MOOVA (Monochoria); 0.1250 kg/ha): 4.0
- Herbicidal rating MOOVA (MOOVA (Monochoria); 0.2500 kg/ha): 7.0
- Herbicidal rating SAGPY ([7]; 0.0313 kg/ha): 0.0
- Herbicidal rating SAGPY ([7]; 0.0625 kg/ha): 0.0
- Herbicidal rating SAGPY ([7]; 0.1250 kg/ha): 0.0
- Herbicidal rating SAGPY ([7]; 0.2500 kg/ha): 0.0
- Herbicidal rating CYPIR (CYPIR (Rice Flatsedge); rate 0.0313 kg/ha): 0.0
- Herbicidal rating CYPIR (CYPIR (Rice Flatsedge); rate 0.0625 kg/ha): 0.0
- Herbicidal rating CYPIR (CYPIR (Rice Flatsedge); rate 0.1250 kg/ha): 0.0
- Herbicidal rating CYPIR (CYPIR (Rice Flatsedge); rate 0.2500 kg/ha): 0.0
